According to EP1785417A2, “Novel non-psychotropic cannabinoids” (priority 2000, dated 2001):
Like-named read-outs stand apart in the source and are kept apart here.

Tests used:
NMDA receptor = test: Radioligand binding: displacement of [3H]MK-801 from rat forebrain membranes; conditions: for NMDA receptor binding / affinity: MK-801 binding to membranes
Source text: Evaluation of the therapeutic effects of the novel PRS-211 compounds has now been carried out in a series of experimental systems to support the utility of these drugs as neuroprotectants, anti-inflammatory agents and anti-oxidative agents. These effects have been evaluated both in vitro and in vivo, and have been corroborated utilizing the following systems: • (a) Binding to the NMDA receptor linked channel: Non competitive antagonists of NMDA, the primary example of which is the compound MK-801, bind to a site within the NMDA receptor channel thus preventing the activation of the receptor-channel complex and the consequent neurotoxicity. The ability of various compounds to compete with the binding of tritium labeled MK-801 to brain membranes is considered a measure of their potency as NMDA non-competitive antagonists. • (b) Inhibition of prostaglandin production: The inhibitory effect of the new derivatives of Dexanabinol on prostaglandin synthesis is evaluated in macrophage cell cultures following LPS exposure to induce the inflammatory response. These assays are an indication of the anti-inflammatory activity of the individual analogs. • (c) Inhibition of Tumor Necrosis Factor Alpha: Specific aspects of the inflammatory response cascade are mediated by the cytokine TNFα. Inhibition of TNFα production and/or inhibition of TNFα release by the new analogs are assayed in macrophage cell cultures activated with LPS. This serves as another indication of the general anti-inflammatory potential of the novel compounds. • (d) Nitric Oxide Assay: As one aspect of the anti-oxidative potential of the novel analogs they were tested for their ability to inhibit the enzyme nitric oxide synthase (NOS). This assay can also serve as another indication of the anti-inflammatory cascade, as well as the anti-oxidative mechanisms. • (e) Ear Edema model: The anti-inflammatory activity of the new analogs is screened using an ear edema model in mice. This test system utilizes Croton oil or Arachidonic acid as inflammation inducers. The ability of the test compounds to prevent or diminish the inflammatory response to these stimulants is indicative of their systemic anti-inflammatory capability. • (f) Improved clinical outcome after closed head injury in rats: Severe head injury is associated with high mortality and severe neurological impairment. Animals subjected to head trauma in a controlled fashion serve as models in which to test drugs of therapeutic potential. Test compounds can be evaluated both for improved clinical outcome and for reduction of edema induced by closed head injury. The ability of compounds to reduce the severity of neurological symptoms and to reduce brain edema is considered a measure of their potency in reducing brain damage. • (g) Transient Middle cerebral artery occlusion (MCAo): The middle cerebral artery is the cerebral blood vessel most susceptible to stroke in humans. In animals, coagulation, permanent ligation or permanent placement of an occluding thread in the artery produces a permanent focal stroke affecting the MCA territory. Transient ligation or occlusion results in transient focal stroke. Both transient and permanent focal strokes result in varying degrees of edema and infarction in the affected brain regions. The ability of compounds to reduce the volumes of edema and infarction is considered a measure of their potential as anti-stroke treatment. • (h) Optic Nerve Crush: Application of mechanical pressure to the rat optical nerve results in crush injury of the axons, which is accompanied by immediate changes in oxidative metabolism and delayed axonal death and blindness. […]

[1] = Body weight gain during staircase testing after transient MCAo; type: in vivo, rats; conditions: compared to base line
Protocol: Animals were allowed to recover from the surgery for five days. The mild food deprivation was re-employed during the days following the ischemic insult. They were tested in the staircase box using the above method for 9-12 days. Animals were weighed twice a week during this period.
Animals were kept under mild food deprivation during the staircase testing (except during weekends). Under these conditions, the following results were observed: • Sham and PRS-211,095 10 mg/kg treated rats gained the maximal body weight (15 and 17% respectively compared to base line). […] These differences were not statistically different.

[2] = test system: transient middle cerebral artery occlusion in rats; test: Transient middle cerebral artery occlusion (MCAo), infarct size evaluation; type: in vivo; conditions: for Mortality rate: 5 mg/kg IV at 2+0 hours; for reduction of infarct size: IV, one week after the ischemic insult
Source text: Experimental design. The design was a randomized one, performed in a masked fashion as to whether drug or vehicle was being given, and an attempt was made to generate approximately equal numbers of drug- and vehicle-treated animals.
• a. Male rats (8 /treatment group) 320-380 gr. (Harlan Israel). • b. Halothane (Rhone Poulenc France) • c. Pentobarbitone (Pental Veterinary, CTS Israel). • d. Poly - L - Lysine (Sigma, USA). • e. Silk suture material 3-0 and 4-0. • f. Nylon (Polyamid) suture material 3-0. Four cm pieces were cut and positioned in a solution of 1% Poly - L - Lysine for 1 minute and dried in an oven (60 ° C) for 60 minutes. The tip of each piece was rounded under a flame. • g. Saline (Teva Medical). • h. Blank cremophor ethanol cosolvent (Pharmos). • i. Dexanabinol in cremophor ethanol cosolvent 50 mg/ml. (Both Dexanabinol and its vehicle were diluted in saline prior to drug administration. • j. Analogs PRS-211,092, PRS-211,095, PRS-211,128 PRS-211,132 and PRS-211,220 in cremophor ethanol cosolvent, 50 mg/ml. • k. The analogs were diluted in saline prior to drug administration.
• a. Surgical details of the MCAo method used for testing dexanabinol analogs, are presented in Belayev, et al., (Belayev, Busto, Weizhao, and Ginsberg, Stroke 26:2313-2319, 1995) which is incorporated herein in its entirety by reference. • b. Two hours after the start of MCAO, the animals were reanesthetized with halothane, the neck wound was re-opened and the nylon thread pulled out of the Internal carotid artery (ICA). The skin wound was then closed with 3-0 silk suture material and the animals allowed to recover from the anesthesia. • c. Three sets of animals were tested. In the first test immediately (2+0 hours) before thread removal the animals were injected IV with either analogs PRS-211,095, PRS-211,128, PRS-211,132, or Dexanabinol (PRS-211,007) each at a dosage of 5 mg/kg. One group of animals was treated with 5ml/kg vehicle alone. In another group, the animals subjected to "sham" operation, the suture was passed into the ICA, as described above, but immediately withdrawn. In the second set dexanabinol, PRS-211,092, PRS-211,095 and PRS-211,220 were used, at 2+0 hours. In the third set dexanabinol, PRS-211,092, PRS-211,095 and PRS-211,220 were administered 1 hour after thread removal (2+1 hours). Laser Doppler Flow (LDF) determined the success of MCAo - a drop of more then 50% in cerebral blood flow was considered as a sign of successful MCAo. Although LDF was a helpful corroborative sign, clinical outcome remained the final inclusion/exclusion criterion, since, with the exception of the PRS-211,220 staircase study, LDF was introduced only after initiation of the study.
A detailed investigation of neurological performance was carried out on the first, third and the 7th day after the MCAo. Two parameters were examined: posture and the flexion reflex (based on Nokon and Chuang, NeuroReport 9, 1998: 2081-2084). Animals were scored according to their performance:
One week after the ischemic insult, animals were euthanized with pentobarbitone 100 mg/kg IP. The animals were perfused through the heart with heparinized 4% formaldehyde solution in PBS (pH 7.4). Brains were then removed, and kept in the same solution before preparation for histological evaluation of the brain infarct volume.

[3] = [3H]MK-801 binding, text to Figure 2, read-out: mean IC50
[4] = displacement of [3H]MK-801, rat forebrain membranes, read-out: NMDA BINDING IC50

With `CCCCCCC(C)(C)c1cc(O)c2c(c1)OC(C)(C)[C@H]1CC=C(Cn3ccnc3)C[C@H]21` (single isomer, unassigned) [211,095-000] the “NMDA receptor binding / affinity” value (NMDA receptor) was “relatively high affinity”, the IC50 (NMDA receptor; [3]) was 2.5 µM and the IC50 (NMDA receptor; [4]) was 2.5 µM. The body weight gain ([1]; 0.5 mg/kg) was “did not gain weight”, the body weight gain ([1]; 2.5 mg/kg) was “did not gain weight” and the body weight gain ([1]; 5 mg/kg) was 4%. For the same compound, the body weight gain ([1]; 10 mg/kg) was 17%, the Mortality rate [2] was “No mortality” and the “reduction of infarct size” value [2] was 60%. The “Behavioral / Neurological outcome” value ([2]; compared to the other treatment groups) was “fewer neurological deficits and recovered faster”.
In the case of `CCCCCCC(C)(C)c1cc(O)c2c(c1)OC(C)(C)[C@H]1CC=C(CO)C[C@H]21` [211,007-000 HU-211, 1,1 dimethyl heptyl-(3 S,4S)-7-hydroxy-Δ^6-tetrahydrocannabinol, reference compound], the “NMDA receptor binding / affinity” value (NMDA receptor) is reported as “competes with the binding of MK-801”, the IC50 (NMDA receptor; [3]) is reported as 10 µM and the IC50 (NMDA receptor; [4]) is reported as 10 µM. The Ki (NMDA receptor; inhibition of [3H]MK-801 binding, read-out: inhibition constant (KI)) was 11 ± 1.3 µM, the body weight gain ([1]; 5 mg/kg) was 7% and the Mortality rate [2] was 9%. For the same compound, the “reduction of infarct size” value [2] was 48%.
